row,SMILES,melting point [°C]
1,Cc1sc(N)c(C(=O)c2ccc(Cl)cc2)c1CN1CCN(c2ccc(F)cc2)CC1,70 to 72
2,O=P(O)(O)C(O)c1ccccc1 (stereo not given),160 to 162
3,O=C(NCCCN1CCN(c2cccc(Cl)c2)CC1)NC12CC3CC(CC(C3)C1)C2,174 to 175
4,CCC(C)(CCc1ccccc1)NC(=O)n1nc(C)n(N)c1=O (stereo not given),78
5,O=S(=O)(Nc1ccc(N2CCN3CCC2CC3)cc1)c1ccccc1,267
6,c1cncc(Nc2ncc(-c3ccncn3)c(-c3ccco3)n2)c1,174
7,COc1ccc2cc(-c3cccnc3)cc(C)c2n1,117 to 118
8,CN(C)c1nc2cc(N)ccn2n1,236 to 238
9,CN(C)Cc1ccccc1Sc1ccc(F)cc1[N+](=O)[O-],57 to 59
10,O=C1C[C@@H](O)C[C@H](CCc2c(Cl)cc(Cl)cc2OCc2ccc(F)cc2)O1,133 to 135
11,COc1ccc(CCNc2nc(Cl)c3nc(-c4ccco4)oc3n2)cc1,170 to 171
12,O=NN1CCN(c2ccc(Cl)cc2)C1=O,154 to 156
13,COc1ccc2cc(C=O)oc2c1,75 to 77
14,COc1cc2c(cc1Br)-c1c(-c3cccs3)c3c(n1CC2)C(=O)N(C(C)C)CCN(C(=O)C(C)C)C3,248 to 249
15,Cc1ccc(-n2c(-c3cccc4ccccc34)ccc2-c2cccc3ccccc23)cc1,105 to 106
16,COc1ccc2c3c(c(=O)oc2c1)CN(Cc1ccccc1)CC3,118 to 120
17,Cc1oc(-c2ccccc2)nc1COc1ccc(CCCC2OC(=O)NC2=O)cc1F (stereo not given),180 to 181
18,Cc1ccc(C2CCN(C(=O)CCC(=O)c3ccc4c(c3)CCNCC4)CC2)cc1,115 to 116
19,CCCC(=O)c1sc(NC(=O)c2ccncc2)nc1-c1ccco1,191 to 194
20,OCCOc1ccc2nc(S)sc2c1,162 to 165
21,CCOC(=O)C1=C(C(=O)OCC)C(c2cc(OC)c(OC)c(OC)c2)C(C(=O)OCC)=C(C)N1 (stereo not given),134
22,O=C(O)c1ccc([N+](=O)[O-])cc1NC(=O)C(F)(F)F,198

# Now from value to molecule:
row,melting point [°C],SMILES
1,176,CC(SC1COC(c2ccc(C(=O)Nc3ccc(C#N)cc3)cc2)OC1)C(O)(Cn1cncn1)c1ccc(F)cc1F (stereo not given)
2,58 to 60,CCOC(=O)/C=C(\C)Cl
3,105 to 107,CCN(CC)CCNC(=O)c1ccc2cc(I)ccc2c1
4,39 to 40,Cc1cc(=O)n(CCBr)o1
5,211,O=C(CC1CCOCC1)Nc1cccc2nc(N[C@@H]3CCc4ccccc43)ccc12
6,70 to 71,CNc1nc(Nc2ccc(CCNC(=O)OC(C)(C)C)cc2)ncc1[N+](=O)[O-]
7,113 to 115,COC(=O)c1ccc(OCC(O)c2ccc3c(c2)C(C)(C)CCS3)cc1O (stereo not given)
8,188 to 191,CN(C)Cc1c(-c2cc(C(C)(C)C)c(O)c(C(C)(C)C)c2)nc2n1CCS2
9,144 to 146,CC(C)CC1(CC(C)C)CCc2c(OCc3ccc4ccccc4n3)cccc2C1O (stereo not given)
10,52 to 53,CCN(CC)C(=O)c1ccccc1-c1ccc2ccccc2c1
11,22.4,CCCCCc1ccc(CCC2CCC(C#N)CC2)cc1 (stereo not given)
12,210 to 212,CC1CC(=O)c2cc(O)cnc2C1 (stereo not given)
13,97 to 98,COC(=O)c1ccc(Oc2cc(-n3nc(C)n(C(F)F)c3=O)c(F)cc2Cl)cc1
14,160 to 162,CCCn1ncc2c(=O)[nH]c(-c3cc(C(=O)CN4CCOCC4)ccc3OCC)nc21
15,128 to 129,Cc1c(CO)c2cnnc(OCc3ccc(F)cc3)c2n1C[C@H]1C[C@@H]1C
16,85 to 86,Fc1cccc(CCc2nnc(-c3ccc4c(c3)CCO4)o2)c1
17,130 to 131,CCOC(=O)/C=C/c1nc(COc2ccc(COc3nn(-c4ccccc4)cc3/C=C/P(=O)(OCC)OCC)cc2OC)c(C)o1
18,154 to 155,Cc1nc2c(NC(=O)OCCc3ccc([N+](=O)[O-])cc3)nc(=O)n(C3CC(O)C(CO)O3)c2nc1C (stereo not given)

# From a melting point compilation (Tetko et al.; mined from patent text by program, amines drawn as free bases though some values may be those of a salt)
